Counter-ions that a name gives are not always drawn.

Experiment [1] has as its system Abelson 8.1 tumor cells. The experiment can be described thus: Influence on Cytotoxicity of ET-18-OCH₃ test (IC-ET test) (Test E). In kind it is cell-based, mice. To be noted: at 5 µg, macrophages pre-incubated with 10µg ET-18-OCH₃, values recorded after 72 hours, ET-18-OCH₃ alone set at 100%. How it is done:
Test E) Influence on Cytotoxicity of ET-18-OCH₃ test (IC-ET test).
Bone marrow cell macrophages (10⁵/well)obtained from [BALB/CX57/BL₆]Fl mice were incubated with 10µg of 1-octadecyl-2-methoxy-3-phosphoryl choline (ET-18-OCH₃) for 24 hours in flat bottom microtiter plates (Nunc Roskieide,Denmark), after which time they are centrifuged and washed once. Abelson 8.1 tumor cells in DMEM + 10% fetal calf serum and 1,3 and 5ug of the test compound were then added to the plates. With the cytotoxicity of ET-18-OCH₃ (10ug) alone set at 100%, the inhibition or enhancement of the cytotoxic effect, as measured by an alkaline phosphatase assay, was determined and values recorded after 72 hours for 1,3 and 5ug of the test substance.

Experiment [2] concerns Abelson 8.1 tumor cells. As to the kind of experiment: Tumor cell cytotoxicity Test (TCCT) (Test D), alkaline phosphatase readout. Format: cell-based. Conditions: at 5µg. As to the method:
Test D) Tumor cell cytotoxicity Test (TCCT).
In flat bottom microtiter plates (Nunc Roskieide, Denmark) were placed Abelson 8.1 tumor cells in DMEM + 10% fetal calf serum and the tumor cell-containing plates were incubated with 1,3, and 5µg of the test compound for a period of 6 to 72 hours. The number of viable tumor cells present was determined by measuring the alkaline phosphatase in the following manner. The tumor cell plates were centrifuged (500 x g.) for ten minutes and the supernatant flicked off. Without further washing, 100 ul of buffer containing 20 ul of diethanolamine, 2uM of MgCl₂ · 6H₂O, 2.5 uM of p-nitrophenylphosphate and 10 mg Triton X-100 were added. The samples were incubated for 60 minutes at room temperature and the enzymatic reaction was terminated by the addition of 100 ul of 0.5N NaOH. The absorbance was then measured at […] using a Titertek Multiskan apparatus.

Another experiment has as its system Meth A sarcoma cells. The experiment can be described thus: Meth A fibrosarcoma implant in mice (Test F): tumor growth and survivors. In kind it is in vivo. To be noted: 50µg per day p.o. for 28 days, ten CBF₁ mice implanted with 7.3 x 10⁶ Meth A sarcoma cells. The source says: Test F) Meth A fibrosarcoma cells were induced in BALB/C mice by administering methylcholanthrene according to the procedure of Old, et al. (L.J. Old, E.A. Boyse, D.A. Clarke, and E. Carswell, Ann. N.Y. Acad. Sci., 101, 80 (1962). These tumor cells were harvested from the peritoneal cavity 10 to 12 days after administration of methylcholanthrene. Ten CBF₁ mice of 10-12 week age were each implanted with 7.3 x 10⁶ Meth A sarcoma cells to serve as control. A second group of ten CBF₁ mice were each implanted with 7.3 x 10⁶ Meth A sarcoma cells and on day one after implant each mouse was treated p.o. with 5-50µg of the test compound per day for a total of twenty or twenty-seven days. Tumor growth and survivors were assayed on days 7, 14, 21 and 28 after tumor implantation.

The target of experiment [3] is T1, Human Platelet PAF Receptor (Homo sapiens, UniProt P25105).
T1 construct: from tissue; host or cells: washed human platelets from donor blood
The experiment can be described thus: Human Platelet PAF Receptor Assay test (Test A): inhibition of specific binding of [³H]-PAF to platelets. To be noted: inhibition of specific binding of [³H]-PAF to human platelets, read-out: IC₅₀. As to the method:
The compounds of formula I are indicated for use as platelet activating factor receptor antagonists as indicated by their ability to inhibit specific binding of [³H]-PAF to platelets according to the Human Platelet PAF Receptor Assay test (Test A) as follows: Human blood is obtained by venipuncture of healthy, human donors into an anti-coagulant mixture containing 3.15% of trisodium citrate and 20 µg/ml of Prostaglandin I₂ (PGI₂) in a ratio of blood to anti-coagulant of 9:1. Platelet rich plasma (PRP) is prepared by centrifugation (250 x g) of the blood for 20 minutes at room temperature. […] All of the tests are conducted in duplicate and each of the test compounds is evaluated at concentrations of 100, 50, 1 and 0.1 µM. […] An additional 2 ml of Scintiverse II is then added to the vials and, after mixing, the vials are counted for 1 minute in a liquid scintillation spectrometer. The amount of specific binding is calculated as the difference in cpm between the total bound [³H]-PAF and non-specifically bound [³H]-PAF. The percent inhibition of specific binding is determined by dividing the cpm specifically bound in the presence of the test compound by the cpm specifically bound in total, multiplying by 100 and then subtracting from 100. […]

The test system of experiment [4] is PAF-mediated bronchoconstriction. The experiment can be described thus: PAF-induced Pulmonary Inflation Pressure (PIP) Increase test (Test B). Format: in vivo. Conditions: Cavia porcellus, po, guinea pigs, PAF 100 ng/kg i.v., maximal PIP increase, read-out: ED₅₀. As to the method: Furthermore, in view of their potential as PAF receptor antagonists, the compounds of formula I are indicated for use as inhibitors of PAF-mediated bronch oconstriction, which property was evaluated by the PAF-induced Pulmonary Inflation Pressure (PIP) Increase test (Test B) as follows:
Male guinea pigs, weighing between 300 and 400 g, are anesthetized, after which time trachea tube, carotid and jugular cathers are inserted. The test animal is then force ventilated employing a small animal Harvard respirator and the resistance to lung inflation (PIP) is measured utilizing a pressure transducer and recorder. The test compound is administered either orally at 30 minutes up to 4 hours prior to or parenterally e.g. intravenously (jugular) etc. at 5 minutes up to 4 hours prior to the introduction of PAF. […] Any blood pressure measurements taken are recorded from a transducer attached to the carotid catheter. […] A reading at 15 minutes after the administration of PAF is termed the endpoint PIP. The effect of the test compound on the PIP response is determined by the difference between the percent increase in maximal PIP over baseline for the test animal to which has been administered PAF and the test compound compared to the test animal to which only PAF has been administered.

The subject of experiment [5] is PAF-mediated extravasation. The experiment can be described thus: PAF-induced Extravasation test (Test C), hemoconcentration (hematocrit). Format: in vivo. Conditions: Cavia porcellus, po, guinea pigs, PAF 100 ng/kg i.v., inhibition of increase in hematocrit, read-out: ED₅₀. How it is done: Still further, the compounds of formula I are indicated for use as inhibitors of PAF-mediated extravasation (the extrusion of plasma from the lumen of the blood vessels into the vessel wall and surrounding tissues) measured as a function of hemoconcentration according to the PAF-induced Extravasation test(Test C) as follows: Male guinea pigs, weighing between 300 and 400 g, are anesthetized, after which time a femoral catheter is inserted. The test compound is administered either orally or parenterally one hour up to 4 hours prior to the introduction of PAF. The PAF (C₁₈-Sandoz, Hanover) is dissolved in Tris-Tyrode's bovine serum albumin buffer and administered intravenously (jugular) at 100 ng/kg. […] The tubes are then centrifuged and the percent of packed red blood cells (hematocrit) is measured (PAF induces a maximal increase in hematocrit at 5 to 7 minutes subsequent to the injection of PAF). The percent increase in hematocrit over the value prior to the injection of PAF is calculated. The hemacrotit values obtained with the test compound are compared to the hemoconcentration values obtained with PAF alone and are expressed as percent inhibition of percent increase in hematocrit.

T1 sequence (P25105 whole entry): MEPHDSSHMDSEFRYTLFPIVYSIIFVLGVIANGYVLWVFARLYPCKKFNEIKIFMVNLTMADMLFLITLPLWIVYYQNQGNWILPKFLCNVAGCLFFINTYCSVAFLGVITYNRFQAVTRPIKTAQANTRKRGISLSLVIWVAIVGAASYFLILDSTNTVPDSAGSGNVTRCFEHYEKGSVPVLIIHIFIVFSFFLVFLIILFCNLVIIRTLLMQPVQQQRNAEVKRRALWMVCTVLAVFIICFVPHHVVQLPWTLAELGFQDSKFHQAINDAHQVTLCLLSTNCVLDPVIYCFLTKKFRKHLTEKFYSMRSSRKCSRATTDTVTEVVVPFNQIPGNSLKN

Take `C=CCN(CC=C)Cc1ccc(C2=Cc3ccccc3C3=NCCN23)cc1` [Example 3BB, 5-(4ʹ-diallylaminomethylphena]isoquinoline dihydrochloride]: the inh. was determined as 97% in the experiment on Abelson 8.1 tumor cells [1] and 99% in the experiment with Abelson 8.1 tumor cells [2].
On to `C1=C(c2ccc(CN3CCCCC3)cc2)N2CCN=C2c2ccccc21.Cl.Cl` [Example 3N, 5-(4ʹ-piperidinomethylphenyl)-2,3-dihydroimidazo[2,1-a]isoquinoline dihydrochloride], for which the Tumor growth entry in the experiment with Meth A sarcoma cells is reported as “no evidence of the presence of any tumors”. For the same compound, in the experiment on Meth A sarcoma cells (none of the control group survived), the survivors entry is listed as “all of the animals”.
Take `COc1cc(CCc2ccc(C3=Cc4ccccc4C4=NCCN34)cc2)cc(OC)c1OC.Cl` [Example 7E, 5-[4ʹ-(3,4,5-trimethoxyphenylethyl)phenyl]-2,3-dihydroimidazo [2,1-a]isoquinoline hydrochloride]: the IC50 in experiment [3] stood at 60 nM. Moreover, the ED50 in experiment [4] came out at 5 mg/kg; in experiment [5], 4.2 mg/kg.
